Assays:
[1] = molecular target: Ribosomal protein S6 kinase alpha-1 (Homo sapiens) (UniProt Q15418); settings: Compound concentration 1000.0 nM
[2] = molecular target: Dual specificity mitogen-activated protein kinase kinase 6 (Homo sapiens) (UniProt P52564); settings: Compound concentration 1000.0 nM
[3] = molecular target: Mitogen-activated protein kinase kinase kinase 19 (Homo sapiens) (UniProt Q56UN5); settings: Compound concentration 1000.0 nM
[4] = tested on: Tyrosine-protein kinase ABL1 (Homo sapiens), P00519 [E255K]; settings: Compound concentration 1000.0 nM
[5] = molecular target: Mitogen-activated protein kinase kinase kinase kinase 4 (Homo sapiens) (UniProt O95819); settings: Compound concentration 1000.0 nM
[6] = molecular target: Atypical kinase COQ8B, mitochondrial (Homo sapiens) (UniProt Q96D53); settings: Compound concentration 1000.0 nM
[7] = molecular target: Cyclin-dependent kinase-like 3 (Homo sapiens) (UniProt Q8IVW4); settings: Compound concentration 1000.0 nM
[8] = molecular target: Serine/threonine-protein kinase 26 (Homo sapiens) (UniProt Q9P289); settings: Compound concentration 1000.0 nM
[9] = tested on: Tyrosine-protein kinase ABL1 (Homo sapiens), P00519 [Q252H]; settings: Compound concentration 1000.0 nM
[10] = molecular target: Serine/threonine-protein kinase haspin (Homo sapiens) (UniProt Q8TF76); settings: Compound concentration 1000.0 nM
Serine/threonine-protein kinase haspin (Homo sapiens), sequence (Q8TF76 whole entry): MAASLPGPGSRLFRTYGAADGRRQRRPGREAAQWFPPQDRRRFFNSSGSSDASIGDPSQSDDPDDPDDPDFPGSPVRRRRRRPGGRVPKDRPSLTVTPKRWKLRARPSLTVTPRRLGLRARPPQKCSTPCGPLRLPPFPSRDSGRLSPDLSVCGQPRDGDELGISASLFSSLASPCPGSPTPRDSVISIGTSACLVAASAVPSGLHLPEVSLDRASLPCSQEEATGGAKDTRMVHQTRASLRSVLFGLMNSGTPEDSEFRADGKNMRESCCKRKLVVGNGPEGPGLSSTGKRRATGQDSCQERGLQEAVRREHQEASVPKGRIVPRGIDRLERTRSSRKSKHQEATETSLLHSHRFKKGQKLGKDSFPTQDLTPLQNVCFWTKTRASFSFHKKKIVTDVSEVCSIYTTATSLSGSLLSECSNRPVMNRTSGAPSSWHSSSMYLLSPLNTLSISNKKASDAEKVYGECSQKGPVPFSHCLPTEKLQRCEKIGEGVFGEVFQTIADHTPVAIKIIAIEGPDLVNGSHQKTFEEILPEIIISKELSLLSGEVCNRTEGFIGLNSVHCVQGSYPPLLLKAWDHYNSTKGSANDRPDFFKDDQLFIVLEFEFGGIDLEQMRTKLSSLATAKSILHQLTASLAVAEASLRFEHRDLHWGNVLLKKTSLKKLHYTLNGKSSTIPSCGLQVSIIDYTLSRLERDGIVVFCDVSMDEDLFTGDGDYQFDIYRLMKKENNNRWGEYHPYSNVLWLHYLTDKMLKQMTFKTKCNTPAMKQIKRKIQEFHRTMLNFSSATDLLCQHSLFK

[11] = tested on: Serine/threonine-protein kinase B-raf (Homo sapiens), P15056 [V600E]; settings: Compound concentration 1000.0 nM
[12] = molecular target: 5-hydroxytryptamine receptor 5A (Homo sapiens) (UniProt P47898); settings: Compound concentration 10.0 uM
5-hydroxytryptamine receptor 5A (Homo sapiens), sequence (P47898 whole entry): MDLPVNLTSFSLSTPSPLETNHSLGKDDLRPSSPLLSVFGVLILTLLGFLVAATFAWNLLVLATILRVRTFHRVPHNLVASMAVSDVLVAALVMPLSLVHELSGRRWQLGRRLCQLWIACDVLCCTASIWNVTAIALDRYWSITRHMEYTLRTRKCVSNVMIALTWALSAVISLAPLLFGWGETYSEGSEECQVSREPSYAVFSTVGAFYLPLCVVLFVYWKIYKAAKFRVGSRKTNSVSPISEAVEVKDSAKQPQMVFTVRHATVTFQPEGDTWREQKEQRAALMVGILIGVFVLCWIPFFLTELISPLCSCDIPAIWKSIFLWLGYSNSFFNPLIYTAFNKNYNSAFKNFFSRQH

[13] = molecular target: Serine/threonine-protein kinase TBK1 (Homo sapiens) (UniProt Q9UHD2); settings: Compound concentration 1000.0 nM
[14] = tested on: Phosphatidylinositol 4,5-bisphosphate 3-kinase catalytic subunit alpha isoform (Homo sapiens), P42336 [E545A]; settings: Compound concentration 1000.0 nM
[15] = molecular target: NUAK family SNF1-like kinase 1 (Homo sapiens) (UniProt O60285); settings: Compound concentration 1000.0 nM
[16] = tested on: Receptor-type tyrosine-protein kinase FLT3 (Homo sapiens), P36888 [R834Q]; settings: Compound concentration 1000.0 nM
[17] = tested on: Receptor-type tyrosine-protein kinase FLT3 (Homo sapiens), P36888 [UNDEFINED MUTATION]; settings: Compound concentration 1000.0 nM
[18] = tested on: Tyrosine-protein kinase ABL1 (Homo sapiens), P00519 [F317I]; settings: Compound concentration 1000.0 nM
[19] = molecular target: Tyrosine-protein kinase receptor Tie-1 (Homo sapiens) (UniProt P35590); settings: Compound concentration 1000.0 nM
[20] = molecular target: Cyclin-dependent kinase 14 (Homo sapiens) (UniProt O94921); settings: Compound concentration 1000.0 nM
[21] = molecular target: Serine/threonine-protein kinase WNK3 (Homo sapiens) (UniProt Q9BYP7); settings: Compound concentration 1000.0 nM
[22] = molecular target: Muscarinic acetylcholine receptor M2 (Homo sapiens) (UniProt P08172); settings: Compound concentration 10.0 uM
[23] = molecular target: Serine/threonine-protein kinase MRCK beta (Homo sapiens) (UniProt Q9Y5S2); settings: Compound concentration 1000.0 nM
[24] = molecular target: Phosphatidylinositol 4-phosphate 3-kinase C2 domain-containing subunit beta (Homo sapiens) (UniProt O00750); settings: Compound concentration 1000.0 nM
Phosphatidylinositol 4-phosphate 3-kinase C2 domain-containing subunit beta (Homo sapiens), sequence (O00750 whole entry, the tested form may be a part): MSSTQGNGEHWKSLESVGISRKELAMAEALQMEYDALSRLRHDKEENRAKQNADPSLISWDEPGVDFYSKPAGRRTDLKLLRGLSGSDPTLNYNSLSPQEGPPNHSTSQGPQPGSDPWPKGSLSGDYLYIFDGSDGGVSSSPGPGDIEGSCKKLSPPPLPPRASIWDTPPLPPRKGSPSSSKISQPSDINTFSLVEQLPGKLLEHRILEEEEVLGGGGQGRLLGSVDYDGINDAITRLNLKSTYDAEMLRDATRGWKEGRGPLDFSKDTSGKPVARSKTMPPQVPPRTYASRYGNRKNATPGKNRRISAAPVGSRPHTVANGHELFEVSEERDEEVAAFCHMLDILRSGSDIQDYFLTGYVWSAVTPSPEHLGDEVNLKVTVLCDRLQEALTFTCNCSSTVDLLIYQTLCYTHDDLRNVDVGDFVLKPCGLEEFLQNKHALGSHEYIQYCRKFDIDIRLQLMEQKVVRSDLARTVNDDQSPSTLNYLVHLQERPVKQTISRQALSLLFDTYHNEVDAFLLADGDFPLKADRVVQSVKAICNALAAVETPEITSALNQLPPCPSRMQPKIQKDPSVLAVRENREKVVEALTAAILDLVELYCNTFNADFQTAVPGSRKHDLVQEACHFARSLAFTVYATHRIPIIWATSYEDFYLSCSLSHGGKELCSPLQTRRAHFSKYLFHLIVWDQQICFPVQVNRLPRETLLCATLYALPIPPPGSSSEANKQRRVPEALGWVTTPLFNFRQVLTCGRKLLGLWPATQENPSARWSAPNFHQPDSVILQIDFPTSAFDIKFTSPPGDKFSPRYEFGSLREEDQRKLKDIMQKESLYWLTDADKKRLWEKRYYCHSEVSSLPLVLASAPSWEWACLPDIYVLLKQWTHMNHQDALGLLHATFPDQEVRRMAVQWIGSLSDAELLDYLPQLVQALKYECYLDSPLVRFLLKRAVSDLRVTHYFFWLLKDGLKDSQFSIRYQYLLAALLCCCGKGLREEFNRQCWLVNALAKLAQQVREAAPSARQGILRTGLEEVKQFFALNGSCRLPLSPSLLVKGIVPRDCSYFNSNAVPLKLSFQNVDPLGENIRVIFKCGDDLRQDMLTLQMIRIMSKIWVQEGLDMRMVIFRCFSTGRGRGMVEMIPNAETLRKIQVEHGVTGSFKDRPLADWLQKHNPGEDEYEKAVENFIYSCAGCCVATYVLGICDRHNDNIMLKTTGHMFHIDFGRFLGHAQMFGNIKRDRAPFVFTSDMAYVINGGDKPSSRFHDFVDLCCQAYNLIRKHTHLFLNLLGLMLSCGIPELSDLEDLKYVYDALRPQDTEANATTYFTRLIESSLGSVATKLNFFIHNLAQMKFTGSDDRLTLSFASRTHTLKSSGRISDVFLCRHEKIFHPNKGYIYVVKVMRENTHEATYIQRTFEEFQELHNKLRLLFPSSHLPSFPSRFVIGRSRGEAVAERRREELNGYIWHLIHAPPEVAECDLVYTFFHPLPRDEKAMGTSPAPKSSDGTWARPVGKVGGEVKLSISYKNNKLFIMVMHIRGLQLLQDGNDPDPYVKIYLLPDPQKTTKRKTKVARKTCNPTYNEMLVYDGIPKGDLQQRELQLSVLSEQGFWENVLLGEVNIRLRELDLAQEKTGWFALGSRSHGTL

[25] = molecular target: Serine/threonine-protein kinase ICK (Homo sapiens) (UniProt Q9UPZ9); settings: Compound concentration 1000.0 nM
[26] = molecular target: Serine/threonine-protein kinase 32B (Homo sapiens) (UniProt Q9NY57); settings: Compound concentration 1000.0 nM
Serine/threonine-protein kinase 32B (Homo sapiens), sequence (Q9NY57 whole entry): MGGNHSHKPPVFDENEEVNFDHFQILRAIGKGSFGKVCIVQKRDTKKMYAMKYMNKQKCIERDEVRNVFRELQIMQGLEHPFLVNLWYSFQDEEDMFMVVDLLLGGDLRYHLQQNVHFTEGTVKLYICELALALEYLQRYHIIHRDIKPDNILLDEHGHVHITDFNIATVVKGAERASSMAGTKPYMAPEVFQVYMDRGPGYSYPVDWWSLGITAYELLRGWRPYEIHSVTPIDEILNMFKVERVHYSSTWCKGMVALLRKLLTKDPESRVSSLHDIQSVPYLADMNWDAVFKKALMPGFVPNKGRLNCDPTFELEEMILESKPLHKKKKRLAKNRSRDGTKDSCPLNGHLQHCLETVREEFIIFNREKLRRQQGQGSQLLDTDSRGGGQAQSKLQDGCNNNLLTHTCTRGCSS

[27] = molecular target: Serine/threonine-protein kinase LATS2 (Homo sapiens) (UniProt Q9NRM7); settings: Compound concentration 1000.0 nM
[28] = molecular target: Calcium/calmodulin-dependent protein kinase type II subunit alpha (Homo sapiens) (UniProt Q9UQM7); settings: Compound concentration 1000.0 nM
[29] = molecular target: Ephrin type-B receptor 3 (Homo sapiens) (UniProt P54753); settings: Compound concentration 1000.0 nM
[30] = molecular target: Serine/threonine-protein kinase WNK4 (Homo sapiens) (UniProt Q96J92); settings: Compound concentration 1000.0 nM
[31] = molecular target: Serine/threonine-protein kinase PAK 3 (Homo sapiens) (UniProt O75914); settings: Compound concentration 1000.0 nM
[32] = molecular target: Tyrosine-protein kinase ABL1 (Homo sapiens) (UniProt P00519); settings: Compound concentration 1000.0 nM
[33] = molecular target: Peripheral plasma membrane protein CASK (Homo sapiens) (UniProt O14936); settings: Compound concentration 1000.0 nM
D(2) dopamine receptor = D(2) dopamine receptor (Homo sapiens, UniProt P14416); experiment: GPCRScan assay: inhibition of D2; parameters: radioligand conc. used [nm] 0.4 – 1.0, parental cells stable fibroblast
[34] = molecular target: Kappa-type opioid receptor (Homo sapiens) (UniProt P41145); settings: Compound concentration 10.0 uM
[35] = molecular target: Alpha-2C adrenergic receptor (Homo sapiens) (UniProt P18825); settings: Compound concentration 10.0 uM
[36] = molecular target: Hepatocyte growth factor receptor (Homo sapiens) (UniProt P08581); settings: Compound concentration 1000.0 nM
[37] = tested on: Hepatocyte growth factor receptor (Homo sapiens), P08581 [Y1235D]; settings: Compound concentration 1000.0 nM
[38] = molecular target: Alpha-1A adrenergic receptor (Homo sapiens) (UniProt P35348); settings: Compound concentration 10.0 uM
[39] = molecular target: Histamine H3 receptor (Homo sapiens) (UniProt Q9Y5N1); settings: Compound concentration 10.0 uM
[40] = molecular target: Inhibitor of nuclear factor kappa-B kinase subunit beta (Homo sapiens) (UniProt O14920); settings: Compound concentration 1000.0 nM
[41] = molecular target: Alpha-1D adrenergic receptor (Homo sapiens, UniProt P25100); experiment: GPCRScan assay: inhibition of Alpha1D; parameters: radioligand conc. used [nm] 0.3 – 1.0, parental cells stable
[42] = GPCRScan assay: inhibition of GABA/PBR; parameters: species or system Rattus norvegicus; radioligand conc. used [nm] 0.3 – 2.0, parental cells brain tissue
[43] = molecular target: MAP kinase-activated protein kinase 5 (Homo sapiens) (UniProt Q8IW41); settings: Compound concentration 1000.0 nM
[44] = molecular target: Sodium-dependent dopamine transporter (Homo sapiens, UniProt Q01959); experiment: Functional Assay: Platelet-rich plasma SLC6A3/cAMP; type: cell-free

Mitogen-activated protein kinase kinase kinase 19 (Homo sapiens), sequence (Q56UN5 whole entry): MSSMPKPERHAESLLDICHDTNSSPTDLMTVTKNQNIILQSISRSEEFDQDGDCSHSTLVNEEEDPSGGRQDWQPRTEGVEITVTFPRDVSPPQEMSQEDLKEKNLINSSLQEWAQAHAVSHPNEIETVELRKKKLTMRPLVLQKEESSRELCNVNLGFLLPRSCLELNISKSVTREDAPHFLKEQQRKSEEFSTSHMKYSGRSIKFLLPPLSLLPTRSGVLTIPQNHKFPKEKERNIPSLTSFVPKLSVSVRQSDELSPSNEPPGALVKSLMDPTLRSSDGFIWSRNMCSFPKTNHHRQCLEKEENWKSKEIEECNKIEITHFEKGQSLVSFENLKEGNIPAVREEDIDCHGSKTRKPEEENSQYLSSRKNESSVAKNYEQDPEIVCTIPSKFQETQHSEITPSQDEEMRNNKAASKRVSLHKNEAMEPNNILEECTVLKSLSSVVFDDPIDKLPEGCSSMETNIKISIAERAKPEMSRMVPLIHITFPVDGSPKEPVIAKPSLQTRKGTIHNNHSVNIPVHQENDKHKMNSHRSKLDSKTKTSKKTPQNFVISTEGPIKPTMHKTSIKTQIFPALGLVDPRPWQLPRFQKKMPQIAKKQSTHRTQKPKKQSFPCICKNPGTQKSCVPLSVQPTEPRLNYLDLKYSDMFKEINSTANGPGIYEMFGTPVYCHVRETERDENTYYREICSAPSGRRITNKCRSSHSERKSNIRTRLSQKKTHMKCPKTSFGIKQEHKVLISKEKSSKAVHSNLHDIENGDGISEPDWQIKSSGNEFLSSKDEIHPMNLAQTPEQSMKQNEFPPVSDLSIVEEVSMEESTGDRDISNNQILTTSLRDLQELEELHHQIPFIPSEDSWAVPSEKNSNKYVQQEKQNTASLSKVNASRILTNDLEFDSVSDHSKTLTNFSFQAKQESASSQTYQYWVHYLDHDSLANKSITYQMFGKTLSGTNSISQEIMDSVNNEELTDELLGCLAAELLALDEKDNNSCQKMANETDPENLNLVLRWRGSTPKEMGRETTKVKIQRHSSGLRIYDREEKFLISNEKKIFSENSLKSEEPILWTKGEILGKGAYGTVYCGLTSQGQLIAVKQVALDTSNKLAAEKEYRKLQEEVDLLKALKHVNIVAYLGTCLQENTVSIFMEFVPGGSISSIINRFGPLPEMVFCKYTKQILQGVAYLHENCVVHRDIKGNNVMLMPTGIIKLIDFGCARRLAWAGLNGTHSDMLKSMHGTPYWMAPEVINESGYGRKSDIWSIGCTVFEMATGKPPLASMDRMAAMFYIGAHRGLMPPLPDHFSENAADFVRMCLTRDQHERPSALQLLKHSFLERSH
Dual specificity mitogen-activated protein kinase kinase 6 (Homo sapiens), sequence (P52564 whole entry): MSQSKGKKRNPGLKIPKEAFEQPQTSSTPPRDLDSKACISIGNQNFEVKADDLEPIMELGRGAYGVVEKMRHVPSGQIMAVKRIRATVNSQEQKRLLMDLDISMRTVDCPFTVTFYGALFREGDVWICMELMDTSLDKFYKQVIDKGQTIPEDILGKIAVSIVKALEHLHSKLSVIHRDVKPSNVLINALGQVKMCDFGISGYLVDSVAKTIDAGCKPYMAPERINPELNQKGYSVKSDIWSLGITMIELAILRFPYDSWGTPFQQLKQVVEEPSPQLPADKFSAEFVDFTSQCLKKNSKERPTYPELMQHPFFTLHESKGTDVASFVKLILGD

CN([C@@H]1CCc2c(CC(=O)O)c3cc(S(C)(=O)=O)ccc3n2C1)S(=O)(=O)c1ccc(F)cc1
residual activity [1]: 91% | residual activity [2]: 100% | residual activity [3]: 79% | residual activity [4]: 100% | residual activity [5]: 100% | residual activity [6]: 100% | residual activity [7]: 100% | residual activity [8]: 77% | residual activity [9]: 79% | residual activity [10]: 83% | residual activity [11]: 90% | inhibition [12]: -1.56% | residual activity [13]: 97% | residual activity [14]: 96% | residual activity [15]: 100% | residual activity [16]: 100% | residual activity [17]: 82% | residual activity [18]: 76% | residual activity [19]: 95% | residual activity [20]: 100% | residual activity [21]: 83% | inhibition [22]: -9.24% | residual activity [23]: 100% | residual activity [24]: 100% | residual activity [25]: 93% | residual activity [26]: 100% | residual activity [27]: 88% | residual activity [28]: 100% | residual activity [29]: 90% | residual activity [30]: 100% | residual activity [31]: 79% | residual activity [32]: 74% | residual activity [33]: 80%

CN([C@@H]1CCc2c(CC(=O)O)c3ccccc3n2C1)S(=O)(=O)c1ccc(F)cc1 [MK-7246]
residual activity [1]: 100% | Ki (D(2) dopamine receptor): 3.75 µM | residual activity [2]: 100% | inhibition [34]: 4.56% | residual activity [3]: 100% | residual activity [5]: 100% | residual activity [6]: 100% | residual activity [7]: 85% | residual activity [8]: 79% | inhibition [35]: -3.1% | residual activity [10]: 100% | residual activity [36]: 100% | inhibition [12]: -1.36% | residual activity [13]: 100% | residual activity [14]: 100% | residual activity [15]: 100% | residual activity [37]: 100% | residual activity [16]: 100% | residual activity [17]: 100% | inhibition [38]: -4.89% | residual activity [19]: 89% | residual activity [20]: 100% | residual activity [21]: 86% | inhibition [22]: -0.4% | residual activity [23]: 100% | residual activity [24]: 94% | residual activity [25]: 100% | inhibition [39]: 4.03% | residual activity [40]: 98% | residual activity [26]: 100% | Ki [41]: 10 µM | Ki [42]: 1.11 µM | pKi [42]: 5.95 | residual activity [27]: 100% | residual activity [43]: 94% | residual activity [28]: 91% | IC50 [44]: 8.69 µM (not active) | residual activity [29]: 88% | residual activity [30]: 100% | residual activity [31]: 98% | residual activity [33]: 66%

From ChEMBL document CHEMBL4507290 (2021)
